{"source": "patent US7776538B2", "about": "“Method for diagnosing methamphetamine dependence” (National University Corporation Nagoya University, priority 2005, dated 2010)", "key": {"mice": {"system": "mice", "experiment": "Locomotor activity test", "type": "in vivo", "conditions": "methamphetamine administered to mice every day (FIG. 1: 2 mg/kg, s.c., six days), hydrochloride", "method": "In the test, ICR male mice (Japan SLC, Hamamatsu) that were 8-week old when the test was started. The mice were bred under conditions of light and dark cycle of 12 hours (light up: A.M 8:00), room temperature 23±1° C., and humidity 50±5%. The mice were freely fed with food (CE2: CLEA Japan, Tokyo) and water. Note here that this research program was approved by Animal Research Committee, Nagoya University School of Medicine and carried out in accordance with Guideline of Animal Research of Nagoya University School of Medicine and Principles of Laboratory Animal Care (National Institutes of Health Publication 85-23, 1985).\nIn the test, an acrylic cage (28 cm in length, 17 cm in width and 13 cm in height) that is the same kind as the home case was used. On the floor, a small amount of breeding chip was placed. […]\nOn days 1 to 3, mice were placed in a measurement cage for two hours so that the mice became accustomed to the measurement environment. […] Right after the administration, the total locomotor activity for two hours was measured.\nEach of the antisense nucleotide of Gene 1 and 2 was infused into the mice cerebral ventricle continuously by using a mini osmotic pump and methamphetamine was administered to the animals every day. The locomotor activity on the first, third and fifth days was measured. […] The locomotor activity was measured for two hours. […]"}, "Genes 1 to 3 mRNA": {"system": "Genes 1 to 3 mRNA", "experiment": "Expression of Genes 1 to 3 mRNA by RT-PCR / real time RT-PCR after methamphetamine", "type": "in vivo, mice", "excerpt": "Furthermore, when the increase of the expression amount was examined by a real time RT-PCR method, the expression amount was increased in the methamphetamine-administered cortex of frontal lobe, nucleus accumbens and striatum, respectively (FIGS. 10 to 12)."}, "[1]": {"target": "T1, human dopamine transporter (Homo sapiens, UniProt Q01959)", "T1 construct": "expressed in transfected cells; host or cells: PC12 cells", "T1 sequence (Q01959 whole entry)": "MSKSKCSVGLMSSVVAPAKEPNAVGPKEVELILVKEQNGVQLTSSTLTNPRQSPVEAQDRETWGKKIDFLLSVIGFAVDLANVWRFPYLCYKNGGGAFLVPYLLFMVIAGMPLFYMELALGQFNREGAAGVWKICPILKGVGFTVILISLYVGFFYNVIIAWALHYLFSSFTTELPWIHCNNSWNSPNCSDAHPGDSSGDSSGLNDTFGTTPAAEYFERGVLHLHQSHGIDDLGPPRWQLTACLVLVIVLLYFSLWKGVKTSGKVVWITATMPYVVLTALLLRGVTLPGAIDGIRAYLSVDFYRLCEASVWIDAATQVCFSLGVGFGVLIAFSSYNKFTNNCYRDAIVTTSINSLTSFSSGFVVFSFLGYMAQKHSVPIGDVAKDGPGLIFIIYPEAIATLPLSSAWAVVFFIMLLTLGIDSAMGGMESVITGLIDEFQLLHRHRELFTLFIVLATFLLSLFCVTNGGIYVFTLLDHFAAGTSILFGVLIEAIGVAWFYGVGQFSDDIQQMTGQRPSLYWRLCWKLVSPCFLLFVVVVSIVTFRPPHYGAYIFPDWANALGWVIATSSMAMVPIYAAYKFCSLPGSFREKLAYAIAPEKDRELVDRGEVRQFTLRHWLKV", "experiment": "Fluorescence immunostaining of intracellular movement of dopamine transporter in PC12 cell", "conditions": "before and after methamphetamine was acted", "procedure": "In the PC12 cell, the human dopamine transporter was forcedly expressed and fluorescence immunostaining of a human dopamine transporter was carried out before and after methamphetamine was acted."}, "[2]": {"system": "mouse (C57black6) nucleus accumbens", "experiment": "cDNA subtraction of nucleus accumbens mRNA after methamphetamine", "type": "in vivo", "conditions": "methamphetamine 10 consecutive days, five genes incl. Gene 1, Gene 2, Gene 3 (Piccolo)", "method": "By using RNeasy mini kit (QIAGEN), mRNA was prepared by the following procedure. Mouse brain was taken out and the tissue was divided so as to be 30 mg or less. The brain tissue was dissolved in a solution containing a protein denaturizing agent and centrifuged with a spin column. Ethanol precipitation was repeated. Finally, mRNA was purified with silica gel.\nThe cDNA subtraction was carried out by using CLONTECH PCR-Select™ cDNA Subtraction Kit (CLONTECH) according to the attached instruction manual.\nMethamphetamine-administered mice show hyperactivity, and when methamphetamine is administered to mice every day, the degree of hyperactivity is increased. This can be thought to be a mental disorder accompanying drug dependence (FIG. 1). Then, mRNA was taken out from the mouse (C57black6) nucleus accumbens to which methamphetamine had been administered for 10 consecutive days. Based on this, cDNA subtraction (CLONTECH) was carried out. In mice to which methamphetamine had been administered, a gene in which mRNA expression amount increased by 20 times or more than that of a control group was searched. As a result, five genes satisfy the requirement (FIG. 2). In the genes, three genes except for CREB3 and Odz4 were used for the later research. For convenience of description, each gene is referred to as Gene 1, Gene 2 and Gene 3 (Piccolo)."}, "Gene 1 mRNA": {"system": "Gene 1 mRNA", "experiment": "Gene 1 mRNA expression in brain tissue by RT-PCR", "type": "in vivo, mice", "conditions": "for Gene 1 expression amount in the nucleus accumbens induced by methamphetamine: methamphetamine 2 mg/kg s.c. six days, R(+)-SCH23390 0.1 mg/kg i.p. or raclopride 2 mg/kg i.p. 30 minutes before", "method": "Antisense nucleotide of Gene 1 was continuously infused into the mouse cerebral ventricle by using a mini osmotic pump and methamphetamine was administered to the animals every day.\nA mouse was fed with 6% ethanol or water (control) for 12 days, and then was subjected to decapitation. The amount of Gene 1 mRNA in the nucleus accumbens was measured by a RT-PCR method."}}, "data": [{"smiles": "CN[C@@H](C)Cc1ccccc1.Cl", "note": "[methamphetamine, methamphetamine hydrochloride]", "values": [{"measurement": "locomotor activity", "setting": "mice", "result": "enhanced"}, {"measurement": "locomotor activity", "setting": "mice; listed as Methamphetamine", "result": "hyperactivity"}, {"measurement": "mRNA of Genes 1 to 3 (RT-PCR)", "setting": "Genes 1 to 3 mRNA; methamphetamine administered group compared with control group, all primer combinations", "result": "increase of mRNA was observed"}, {"measurement": "expression amount of Genes 1 to 3 (real time RT-PCR)", "setting": "Genes 1 to 3 mRNA; methamphetamine-administered cortex of frontal lobe, nucleus accumbens and striatum", "result": "increased"}, {"measurement": "intracellular movement of the human dopamine transporter", "setting": "[1]", "result": "intracellular movement of the human dopamine transporter was observed"}, {"measurement": "mRNA expression amount increase over control group", "setting": "[2]", "result": "≥ 20", "unit": "times"}]}, {"smiles": "c1ccc(C2(N3CCCCC3)CCCCC2)cc1", "note": "[phencyclidine]", "values": [{"measurement": "Gene 1 mRNA amount in the cortex of frontal lobe", "setting": "Gene 1 mRNA; phencyclidine 10 mg/kg s.c. 14 days", "result": "no significant correlation"}]}, {"smiles": "CN1CCCC1c1cccnc1", "note": "(centres unmarked) [nicotine]", "values": [{"measurement": "Gene 1 mRNA amount in the nucleus accumbens", "setting": "Gene 1 mRNA; nicotine 0.05-1.0 mg/kg s.c. 12 days", "result": "correlation between the administration of nicotine and the expression amount of Gene 1 was observed"}]}, {"smiles": "CCO", "note": "[ethanol]", "values": [{"measurement": "Gene 1 mRNA amount in the nucleus accumbens", "setting": "Gene 1 mRNA; 6% ethanol fed for 12 days vs water", "result": "no significant correlation"}]}, {"smiles": "CN1CCc2cc(Cl)c(O)cc2[C@@H](c2ccccc2)C1", "note": "[R(+)-SCH23390]", "values": [{"measurement": "Gene 1 expression amount in the nucleus accumbens induced by methamphetamine", "setting": "Gene 1 mRNA", "result": "significant difference was observed"}]}, {"smiles": "CCN1CCC[C@H]1CNC(=O)c1c(O)c(Cl)cc(Cl)c1OC", "note": "[raclopride]", "values": [{"measurement": "Gene 1 expression amount in the nucleus accumbens induced by methamphetamine", "setting": "Gene 1 mRNA", "result": "significant difference was observed"}]}]}
